Test results as given in patent publication US11390631B1, “Benzodiazepine derivatives as RSV inhibitors” (priority 2015, dated 2022).

Columns and labels:
[1] = system: Human RSV-A (“Long” strain); assay: RSV-A assay: inhibition of cytopathic effect in Hep-2 cells, ATPlite readout; format: cell-based, Human respiratory syncytial virus (HRSV); conditions: human respiratory syncytial virus, HEp-2, 120 h, read-out: Human RSV-A (“Long” strain) EC50
Outline: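 Cytopathic-effect protection was read as ATP content (ATPlite luminescence) after a 5-day incubation. Setup: Hep-2 cells at 8,000 per well, RSV-A Long at MOI 0.1, 2-fold serial compound dilutions in duplicate. Cytotoxicity (CC50) was measured on an identical uninfected plate run in parallel.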

[2] = Cytotoxicity on parallel plate without virus, ATPlite readout; format: cell-based; conditions: human, Hep-2 cells (no virus), Hep-2 cells without virus, 5-day incubation
Experimental: Following extensive parameter testing, the final assay is run as follows: Hep-2 cells are seeded into the inner 60 wells of a 96-well plate at 8,000 cells per well in a volume of 50 μL using Growth Media (DMEM without phenol red, 1% L-Glut, 1% Penn/Strep, 1% nonessential amino acids, 10% heat-inactivated FBS). 2-fold serial dilutions of control and test compounds are added to the wells in duplicate in a total volume of 25 μL. Viral stock is then added to the wells at a multiplicity of infection (MOI) of 0.1 in a volume of 25 μL, bringing the total volume of each well to 100 μL. The MOI is calculated using the PFU/mL, or TCID50 if unavailable. Each 96-well plate has a control column of 6 wells with cells and virus but no compound (negative control, max CPE), a column with cells but no compound or virus (positive control, minimum CPE), and a column with no cells or virus or compound (background plate/reagent control). The control wells with cells but no virus are given an additional 25 uL of growth media containing an equal quantity of sucrose as those wells receiving the viral stock in order to keep consistent in media and volume conditions. The outer wells of the plate are filled with 125 μL of moat media (DMEM, 1% Penn/Strep) to act as a thermal and evaporative moat around the test wells. Following a 5-day incubation period, the plates are read using ATPlite (50 uL added per well), which quantifies the amount of ATP (a measure of cell health) present in each well. Assay plates are read using the Envision luminometer. In parallel, cytotoxicity is examined on an additional 96-well plate treated in an identical manner, but substituting the 25 μL of viral stock for 25 μL of growth media. […] EC50 ranges are as follows: A<0.4 μM; B 0.4-0.8 μM; C>0.8 μM and CC50 ranges are as follows: A>50 μM; B 10-50 μM; C<10 μM.

## O=C1Nc2ccccc2C(c2ccccc2)=NC1Nc1nnc(-c2ccc(=O)[nH]c2)o1 (centres unmarked) [Example 39]
[1]
  EC50: > 0.8 µM
[2]
  CC50 at 5 days: > 50 µM

## O=C1Nc2ccccc2C(c2ccccc2)=NC1Nc1nc2ccc(Cl)cc2o1 (centres unmarked) [Example 99]
[1]
  EC50: > 0.8 µM
[2]
  CC50 at 5 days: 10 to 50 µM

## O=C1Nc2ccccc2C(c2ccccc2)=NC1Nc1nnc(C2CC2)o1 (centres unmarked) [Example 5]
[1]
  EC50: > 0.8 µM
[2]
  CC50 at 5 days: > 50 µM

## O=C1Nc2ccccc2C(c2ccccc2)=NC1Nc1nnc(-c2cnccn2)o1 (centres unmarked) [Example 58]
[1]
  EC50: > 0.8 µM
[2]
  CC50 at 5 days: > 50 µM

## O=C1Nc2ccccc2C(c2ccccc2)=NC1Nc1nnc(-c2cccnn2)o1 (centres unmarked) [Example 62]
[1]
  EC50: > 0.8 µM
[2]
  CC50 at 5 days: > 50 µM

## O=C1Nc2ccccc2C(c2ccccc2)=NC1Nc1nnc(-c2ccc(C(F)(F)F)cc2)o1 (centres unmarked) [Example 28]
[1]
  EC50: > 0.8 µM
[2]
  CC50 at 5 days: > 50 µM

## O=C1Nc2ccccc2C(c2ccccc2)=NC1Nc1ccnc(-c2ccccc2)n1 (centres unmarked) [Example 96]
[1]
  EC50: > 0.8 µM
[2]
  CC50 at 5 days: 10 to 50 µM

## O=C1Nc2ccccc2C(c2ccccc2)=NC1Nc1nc(-c2ccccc2)cs1 (centres unmarked) [Example 90]
[1]
  EC50: > 0.8 µM
[2]
  CC50 at 5 days: < 10 µM

## Cn1nccc1-c1nnc(NC2N=C(c3ccccc3)c3ccccc3NC2=O)o1 (centres unmarked) [Example 65]
[1]
  EC50: > 0.8 µM
[2]
  CC50 at 5 days: > 50 µM

## COc1cccc(-c2nnc(NC3N=C(c4ccccc4)c4ccccc4NC3=O)o2)c1 (centres unmarked) [Example 4]
[1]
  EC50: > 0.8 µM
[2]
  CC50 at 5 days: > 50 µM

## O=C1Nc2ccccc2C(c2ccccc2)=NC1Nc1nnc(-c2ccncc2)s1 (centres unmarked) [Example 83]
[1]
  EC50: > 0.8 µM
[2]
  CC50 at 5 days: > 50 µM

## Cc1cc(-c2nnc(NC3N=C(c4ccccc4)c4ccccc4NC3=O)o2)on1 (centres unmarked) [Example 74]
[1]
  EC50: > 0.8 µM
[2]
  CC50 at 5 days: > 50 µM

## Cc1ccc(-c2nnc(NC3N=C(c4ccccc4)c4ccccc4NC3=O)o2)o1 (centres unmarked) [Example 71]
[1]
  EC50: > 0.8 µM
[2]
  CC50 at 5 days: > 50 µM

## CC(C)Oc1cccc(-c2nnc(NC3N=C(c4ccccc4)c4ccccc4NC3=O)o2)c1 (centres unmarked) [Example 15]
[1]
  EC50: 0.4 to 0.8 µM
[2]
  CC50 at 5 days: > 50 µM

## COCc1cccc(-c2nnc(NC3N=C(c4ccccc4)c4ccccc4NC3=O)o2)n1 (centres unmarked) [Example 64]
[1]
  EC50: > 0.8 µM
[2]
  CC50 at 5 days: > 50 µM

## O=C1Nc2ccccc2C(c2ccccc2)=NC1Nc1nc2cc(F)ccc2o1 (centres unmarked) [Example 104]
[1]
  EC50: > 0.8 µM
[2]
  CC50 at 5 days: 10 to 50 µM

## O=C1Nc2ccccc2C(c2ccccc2)=NC1Nc1nc(N2CCOCC2)ns1 (centres unmarked) [Example 88]
[1]
  EC50: > 0.8 µM
[2]
  CC50 at 5 days: 10 to 50 µM

## O=C1Nc2ccccc2C(c2ccccc2)=NC1Nc1nc(-c2ccccc2)no1 (centres unmarked) [Example 89]
[1]
  EC50: > 0.8 µM
[2]
  CC50 at 5 days: 10 to 50 µM

## NS(=O)(=O)c1ccc(-c2nnc(NC3N=C(c4ccccc4)c4ccccc4NC3=O)o2)cc1 (centres unmarked) [Example 31]
[1]
  EC50: 0.4 to 0.8 µM
[2]
  CC50 at 5 days: > 50 µM

## O=C1Nc2ccccc2C(c2ccccc2)=NC1Nc1nnc(-c2ccc(F)nc2)o1 (centres unmarked) [Example 53]
[1]
  EC50: 0.4 to 0.8 µM
[2]
  CC50 at 5 days: > 50 µM

## O=C1Nc2ccccc2C(c2ccccc2)=NC1Nc1nnc(-c2ncco2)o1 (centres unmarked) [Example 70]
[1]
  EC50: > 0.8 µM
[2]
  CC50 at 5 days: > 50 µM

## O=C1Nc2ccccc2C(c2ccccc2)=NC1Nc1nnc(-c2cccc(C(F)(F)F)c2)o1 (centres unmarked) [Example 29]
[1]
  EC50: > 0.8 µM
[2]
  CC50 at 5 days: > 50 µM

## COc1ccccc1-c1nnc(NC2N=C(c3ccccc3)c3ccccc3NC2=O)o1 (centres unmarked) [Example 9]
[1]
  EC50: > 0.8 µM
[2]
  CC50 at 5 days: > 50 µM

## O=C1Nc2ccccc2C(c2ccccc2)=NC1Nc1nnc(-c2cccnc2)o1 (centres unmarked) [Example 37]
[1]
  EC50: > 0.8 µM
[2]
  CC50 at 5 days: > 50 µM

## O=C1Nc2ccccc2C(c2ccccc2)=NC1Nc1nnc(C2CCOCC2)o1 (centres unmarked) [Example 21]
[1]
  EC50: > 0.8 µM
[2]
  CC50 at 5 days: > 50 µM
